Holding throughout (type): cell-based
The subject of test [1] is Mycobacterium tuberculosis strain 15 (labor strain 137 kV). As to the kind of experiment: Agar Dilution Test (MIC), strain 15 = labor strain 137 kV (Isoniacid S, Rifampicin S, Streptomycin S). (Agar dilution tests growth on a series of plates holding different concentrations.)
The subject of test [2] is Mycobacterium tuberculosis strain 12. As to the kind of experiment: Agar Dilution Test (MIC), strain 12 (Isoniacid S, Rifampicin S, Streptomycin S).
The test system of test [3] is Mycobacterium tuberculosis strain 1. As to the kind of experiment: Agar Dilution Test (MIC), strain 1 (Isoniacid S, Rifampicin S, Streptomycin S). Conditions: read-out: MIC against Mycobacterium tuberculosis of strain number 1.
Test [4] relates to Mycobacterium tuberculosis strain 6. Nature of the test: Agar Dilution Test (MIC), strain 6 (Isoniacid S, Rifampicin S, Streptomycin S).
Test [5] deals with Mycobacterium tuberculosis strain 11. Nature of the test: Agar Dilution Test (MIC), strain 11 (Isoniacid S, Rifampicin S, Streptomycin S).
The subject of test [6] is Mycobacterium tuberculosis strain 14. As to the kind of experiment: Agar Dilution Test (MIC), strain 14 (Isoniacid S, Rifampicin S, Streptomycin S).
Test [7] has as its system Mycobacterium tuberculosis strain 4. Nature of the test: Agar Dilution Test (MIC), strain 4 (Isoniacid R, Rifampicin R, Streptomycin R).
In test [8] the test system is Mycobacterium tuberculosis strain 10. As to the kind of experiment: Agar Dilution Test (MIC), strain 10 (Isoniacid S, Rifampicin S, Streptomycin S).
In test [9] the test system is Mycobacterium tuberculosis strain 7. Nature of the test: Agar Dilution Test (MIC), strain 7 (Isoniacid R, Rifampicin S, Streptomycin R).
Test [10] has as its system Mycobacterium tuberculosis strain 5. Nature of the test: Agar Dilution Test (MIC), strain 5 (Isoniacid R, Rifampicin R, Streptomycin S).
Test [11] has as its system Mycobacterium tuberculosis strain 8. As to the kind of experiment: Agar Dilution Test (MIC), strain 8 (Isoniacid S, Rifampicin R, Streptomycin S).
Test [12] concerns Mycobacterium tuberculosis strain 13. As to the kind of experiment: Agar Dilution Test (MIC), strain 13 (Isoniacid S, Rifampicin S, Streptomycin S).
Test [13] relates to Mycobacterium tuberculosis strain 3. As to the kind of experiment: Agar Dilution Test (MIC), strain 3 (Isoniacid R, Rifampicin R, Streptomycin S).
The subject of test [14] is Mycobacterium tuberculosis strain 2. Nature of the test: Agar Dilution Test (MIC), strain 2 (Isoniacid S, Rifampicin S, Streptomycin S).
Where [15] appears, read: Mycobacterium tuberculosis, 1, 168 h.
Where [16] appears, read: TABLE C; week 4*) tested after 31 days.
Where [17] appears, read: TABLE D; week 4*) tested after 31 days.
Setting [18] is: Mycobacterium tuberculosis, 1, 504 h.
[19] abbreviates: Mycobacterium tuberculosis, 1, 672 h.
Where [20] appears, read: Mycobacterium tuberculosis, 1, 840 h.
The mark [21] stands for this setting: Mycobacterium tuberculosis, 1, 336 h.

≈ marks a conversion by molar mass, not a printed value. Where “and” joins values, the source holds several entries; their conditions need not be identical. Equal entries are not always repeated. Where two headings read alike, the source gives them in different places.

With `C=C[C@]1(C)C[C@@H](OC(=O)CSC(C)(C)C(N)C(=O)N2CCN(C)CC2)[C@]2(C)C(C)CCC3(CCC(=O)C32)[C@@H](C)C1O` (stereo partly drawn) [TC-8], in [1], the “MIC against Mycobacterium tuberculosis of strain number 15” value (“MIC … of strain number 15” for short) stood at 32 µg/mL. Further, the “MIC against Mycobacterium tuberculosis of strain number 12” value (“MIC … of strain number 12” below) in [2] is 32 µg/mL. For the same compound, in test [3] (setting [15]), the MIC is 2 µg/mL (≈ 3.38 µM).

Consider `C=C[C@]1(C)C[C@@H](OC(=O)CSC(C)(C)CNC(=O)[C@H](N)C(C)C)[C@]2(C)[C@H](C)CC[C@]3(CCC(=O)[C@H]32)[C@@H](C)[C@@H]1O` [TC-2, Valnemulin], for which the “MIC against Mycobacterium tuberculosis of strain number 6” value (shortened to “MIC … of strain number 6”) in test [4] was 5 µg/mL and 4 µg/mL; in test [4] (setting [16]) it was 4 µg/mL. The “MIC against Mycobacterium tuberculosis of strain number 11” value in test [5] is 2 µg/mL; in test [5] (setting [17]), 4 µg/mL. Also, the “MIC … of strain number 15” value in test [1] was determined as 2 µg/mL; in test [1] (setting [17]), 4 µg/mL. For the same compound, the “MIC against Mycobacterium tuberculosis of strain number 14” value in test [6] and in [6] (setting [17]) was 4 µg/mL in each case. The “MIC against Mycobacterium tuberculosis of strain number 4” value (“MIC … of strain number 4” below) is 5 µg/mL and 8 µg/mL in test [7]; 8 µg/mL in [7] (setting [16]). The “MIC against Mycobacterium tuberculosis of strain number 10” value in test [8] and in test [8] (setting [17]) was 4 µg/mL throughout. For the same compound, the “MIC against Mycobacterium tuberculosis of strain number 7” value (from here on “MIC … of strain number 7”) in [9] (setting [16]) was 8 µg/mL. Moreover, the figures for the “MIC against Mycobacterium tuberculosis of strain number 5” value in [10] and in test [10] (setting [16]) were 2 µg/mL and 4 µg/mL, respectively. Also, the “MIC against Mycobacterium tuberculosis of strain number 8” value in test [11] amounted to 4 µg/mL; in [11] (setting [16]), 8 µg/mL. The “MIC … of strain number 12” value in [2] and in test [2] (setting [17]) was 4 µg/mL throughout. In addition, the “MIC against Mycobacterium tuberculosis of strain number 13” value in test [12] was found to be 4 µg/mL; in test [12] (setting [17]) it was 8 µg/mL. Besides, the MIC in [3] (setting [18]) amounted to 0.5 µg/mL (≈ 0.885 µM); in test [3] (setting [19]), 0.5 µg/mL (≈ 0.885 µM); in test [3] (Mycobacterium tuberculosis, 1, 744 h, TABLE C; week 4*) tested after 31 days), 0.5 µg/mL (≈ 0.885 µM); in test [3] (setting [20]), 0.5 µg/mL (≈ 0.885 µM). Also, in test [13] (setting [16]), the “MIC against Mycobacterium tuberculosis of strain number 3” value (“MIC … of strain number 3” for short) came out at 2 µg/mL. The “MIC against Mycobacterium tuberculosis of strain number 2” value (“MIC … of strain number 2” for short) in [14] (setting [16]) amounted to 4 µg/mL.

As to `C=C[C@]1(C)C[C@@H](OC(=O)CSC2CCCN(C(=O)C(N)C(C)C)C2)[C@]2(C)C(C)CCC3(CCC(=O)C32)[C@@H](C)C1O` (stereo partly drawn) [TC-4], in [4], the “MIC … of strain number 6” value was 5 µg/mL and 4 µg/mL. Also, the “MIC against Mycobacterium tuberculosis of strain number 11” value in test [5] is 2 µg/mL. Also, the “MIC … of strain number 15” value in test [1] was 4 µg/mL and 2 µg/mL. The “MIC against Mycobacterium tuberculosis of strain number 14” value in test [6] came out at 4 µg/mL. The “MIC against Mycobacterium tuberculosis of strain number 10” value in test [8] is 4 µg/mL and 2 µg/mL. For the same compound, the “MIC against Mycobacterium tuberculosis of strain number 5” value in [10] was found to be 2 µg/mL. The “MIC against Mycobacterium tuberculosis of strain number 8” value in test [11] was 4 µg/mL and 2 µg/mL. In addition, the “MIC … of strain number 12” value in [2] is 4 µg/mL and 2 µg/mL. Also, the “MIC against Mycobacterium tuberculosis of strain number 13” value in test [12] was 4 µg/mL and 2 µg/mL. The MIC is 0.5 µg/mL (≈ 0.867 µM) in test [3] (setting [18]), 1 µg/mL (≈ 1.73 µM) in [3] (setting [19]) and 1 µg/mL (≈ 1.73 µM) in test [3] (setting [20]). For the same compound, the “MIC … of strain number 2” value in test [14] is 5 µg/mL and 4 µg/mL.

As to `C=C[C@]1(C)C[C@@H](OC(=O)CSC2CCNCC2O)[C@]2(C)C(C)CCC3(CCC(=O)C32)[C@@H](C)C1O` (stereo partly drawn) [TC-10], the “MIC … of strain number 15” value in test [1] turned out to be 4 µg/mL. In addition, the “MIC … of strain number 12” value in [2] was determined as 16 µg/mL. Further, the MIC in test [3] (setting [21]) stood at 2 µg/mL (≈ 4.05 µM).

Consider `C=C[C@]1(C)C[C@@H](OC(=O)CSc2cccc(NC(=O)C(N)CCCNC(=N)N)c2)[C@]2(C)C(C)CCC3(CCC(=O)C32)[C@@H](C)C1O` (stereo partly drawn) [TC-5], for which the “MIC … of strain number 6” value in test [4] was 5 µg/mL and 10 µg/mL. In test [7], the “MIC … of strain number 4” value was 5 µg/mL and 10 µg/mL. Besides, the “MIC … of strain number 7” value in test [9] is 5 µg/mL and 10 µg/mL. In addition, the MIC in test [3] (setting [18]) stood at 1 µg/mL (≈ 1.56 µM); in test [3] (setting [19]) it was 5 µg/mL (≈ 7.79 µM); in test [3] (setting [20]) it was 5 µg/mL (≈ 7.79 µM). Further, the “MIC … of strain number 3” value in test [13] came out at 5 µg/mL. The “MIC … of strain number 2” value in test [14] came out at 5 µg/mL.

In the case of `C=C[C@]1(C)C[C@@H](OC(=O)CSC2CCCC(=NO)C2)[C@]2(C)C(C)CCC3(CCC(=O)C32)[C@@H](C)C1O` (stereo partly drawn) [TC-9], the “MIC … of strain number 15” value in test [1] is 32 µg/mL. For the same compound, the “MIC … of strain number 12” value in test [2] turned out to be 32 µg/mL. For the same compound, the MIC in test [3] (setting [15]) is 8 µg/mL (≈ 15.8 µM).

As to `C=C[C@]1(C)C[C@@H](OC(=O)CSc2cccc(NC(=O)C3CCCCN3)c2)[C@]2(C)C(C)CCC3(CCC(=O)C32)[C@@H](C)C1O` (stereo partly drawn) [TC-3], the “MIC … of strain number 6” value in test [4] is 5 µg/mL and 10 µg/mL. Further, the “MIC … of strain number 7” value in test [9] is 20 µg/mL. The MIC in test [3] (setting [18]), in test [3] (setting [19]) and in [3] (setting [20]) was 1 µg/mL (≈ 1.68 µM) in each case. Moreover, the “MIC … of strain number 3” value in test [13] came to 5 µg/mL. The “MIC … of strain number 2” value in test [14] was found to be 5 µg/mL.

Consider `C=C[C@]1(C)C[C@@H](OC(=O)CSC(C)(C)C(N)C(=O)NC)[C@]2(C)C(C)CCC3(CCC(=O)C32)[C@@H](C)C1O` (stereo partly drawn) [TC-7], for which the “MIC … of strain number 15” value in test [1] amounted to 32 µg/mL. The “MIC … of strain number 12” value in [2] amounted to 32 µg/mL. The MIC in test [3] (setting [15]) worked out at 2 µg/mL (≈ 3.83 µM).

On to `C=C[C@]1(C)C[C@@H](OC(=O)CSc2cccc(NC(=N)N)c2)[C@]2(C)C(C)CCC3(CCC(=O)C32)[C@@H](C)C1O` (stereo partly drawn) [TC-6], for which, in test [1], the “MIC … of strain number 15” value stood at 0.5 µg/mL. Besides, the “MIC … of strain number 12” value in test [2] was 1 µg/mL. The MIC in test [3] (setting [21]) is 1 µg/mL (≈ 1.89 µM).

In the case of `C=C[C@]1(C)C[C@@H](OC(=O)CSCCN(CC)CC)[C@]2(C)C(C)CC[C@]3(CCC(=O)C32)[C@@H](C)[C@@H]1O` (stereo partly drawn) [TC-1, 14-Desoxy-14[(2-diethylaminoethyl)mercaptoacetoxy]mutilin], in test [4], the “MIC … of strain number 6” value turned out to be 10 µg/mL. For the same compound, the “MIC … of strain number 4” value in [7] was 5 µg/mL and 10 µg/mL. In test [9], the “MIC … of strain number 7” value was 10 µg/mL and 20 µg/mL. Besides, the MIC in [3] (setting [18]), in test [3] (setting [19]) and in [3] (setting [20]) was 5 µg/mL (≈ 10.1 µM) throughout. Moreover, the “MIC … of strain number 3” value in [13] came out at 5 µg/mL. In addition, the “MIC … of strain number 2” value in test [14] was determined as 5 µg/mL.

A word on the MIC: it is the least concentration at which growth counts as inhibited.
